# Test results reported in article PMC9127750, “Structure-based design of CDC42 effector interaction inhibitors for the treatment of cancer” (Cell reports, 2022).
# Several values for one entry are separate records, joined by “and”; a condition that tells them apart may be missing. Equal values may be shown once.
# Test system: WM3248 melanoma cells, 486 antibodies
# Experiment: Reverse phase protein arrays (RPPA)
# Type: cell-based, Human
# Settings: 20, normalized to 0
# From the text: Pellets were snap frozen in liquid nitrogen and shipped to MD Anderson Cancer Center core RPPA facility for RPPA analysis (Table S5). Three biological replicates for each sample were generated.
# Nomenclatures on the RPPA heatmaps: name_of_antibody.species_of_antibody.status_of_antibody. V - antibody validated; C - validation of antibody in progress; Q - antibody nonspecific; E – under evaluation; antibodies raised in M - mouse, G - goat, R - rabbit, or T - rat.
structure (smiles),measurement,setting,value
"CN(C)c1cccc(Nc2cc(-c3ccccc3)nc(C3CCNCC3)n2)c1 [ARN22089, N1,N1-dimethyl-N3-(6-phenyl-2-(piperidin-4-yl)pyrimidin-4-yl)benzene-1,3-diamine]",HER2.M.V Norm_20 Average,average,0.995
same,HER2_pY1248.R.V Norm_20 Average,average,1.030
same,HER3.R.V Norm_20 Average,average,0.904
same,HER3_pY1289.R.C Norm_20 Average,average,1.084
same,Heregulin.R.V Norm_20 Average,average,1.046
same,eEF2.R.C Norm_20 Average,average,1.639
same,eEF2K.R.V Norm_20 Average,average,1.409
same,eIF4E.R.V Norm_20 Average,average,1.114
same,eIF4G.R.C Norm_20 Average,average,1.165
same,DNMT1.R.V Norm_20,replicates 1-3,0.937 and 0.801
same,DRP1.R.V Norm_20,replicates 1-3,1.019 and 0.894 and 0.979
same,DUSP4.R.V Norm_20,replicates 1-3,0.537 and 0.626 and 1.006
same,DUSP6.R.C Norm_20,replicates 1-3,1.405 and 1.064 and 2.195
same,DYRK1B.R.C Norm_20,replicates 1-3,0.868 and 0.959 and 0.907
same,Dvl3.R.V Norm_20,replicates 1-3,0.990 and 1.118 and 0.985
same,E2F1.R.V Norm_20,replicates 1-3,1.446 and 1.251
same,E.Cadherin.R.V Norm_20,replicates 1-3,0.696 and 0.873 and 0.994
same,EGFR.R.V Norm_20,replicates 1-3,1.083 and 1.189 and 1.125
same,EGFR_pY1068.R.C Norm_20,replicates 1-3,0.892 and 0.889 and 0.961
same,EGFR_pY1173.R.V Norm_20,replicates 1-3,1.079 and 1.019 and 1.046
same,EMA.M.C Norm_20,replicates 1-3,0.566 and 0.868 and 0.914
same,ENY2.M.C Norm_20,replicates 1-3,0.866 and 0.944 and 1.047
same,ER.a.R.V Norm_20,replicates 1-3,0.939 and 0.862 and 1.078
same,ER.a_pS118.R.V Norm_20,replicates 1-3,1.167 and 1.838 and 0.928
same,ERCC1.R.C Norm_20,replicates 1-3,0.964 and 0.974
same,ERCC5.R.C Norm_20,replicates 1-3,1.290 and 0.989 and 1.051
same,ERRalpha.R.V Norm_20,replicates 1-3,0.831 and 1.056 and 1.002
same,EVI1.R.V Norm_20,replicates 1-3,0.975 and 0.917
same,Enolase.1.R.V Norm_20,replicates 1-3,1.030 and 1.152
same,Enolase.2.R.V Norm_20,replicates 1-3,0.990 and 0.970 and 0.883
same,EphA2.R.V Norm_20,replicates 1-3,0.706 and 0.773 and 0.765
same,EphA2_pS897.R.C Norm_20,replicates 1-3,0.536 and 0.635 and 0.720
same,EphA2_pY588.R.C Norm_20,replicates 1-3,0.930 and 1.018 and 0.973
same,Erk5.R.V Norm_20,replicates 1-3,0.948 and 0.789 and 1.013
same,Ets.1.R.V Norm_20,replicates 1-3,1.373 and 1.347 and 1.417
same,FABP5.R.C Norm_20,replicates 1-3,1.102 and 1.223 and 1.428
same,FAK.R.C Norm_20,replicates 1-3,0.837 and 0.917
same,FAK_pY397.R.V Norm_20,replicates 1-3,0.847 and 0.989 and 0.940
same,FANCD2.R.V Norm_20,replicates 1-3,0.831 and 0.901 and 0.823
same,FASN.R.V Norm_20,replicates 1-3,0.802 and 0.983
same,FGF.basic.R.C Norm_20,replicates 1-3,0.939 and 0.836 and 1.240
same,FN14.R.C Norm_20,replicates 1-3,1.082 and 0.902 and 1.335
same,FOXM1.R.V Norm_20,replicates 1-3,0.995 and 0.889 and 0.924
same,FOXO3.R.V Norm_20,replicates 1-3,1.160 and 1.151 and 0.915
same,FRS2.alpha_pY196.R.V Norm_20,replicates 1-3,0.925 and 1.195 and 1.058
same,FTO.R.V Norm_20,replicates 1-3,0.992
same,Fibronectin.R.V Norm_20,replicates 1-3,1.153 and 1.290 and 1.137
same,FoxO3a_pS318_S321.R.C Norm_20,replicates 1-3,1.105 and 0.940
same,G6PD.R.V Norm_20,replicates 1-3,0.877 and 1.061 and 0.923
same,GATA3.M.V Norm_20,replicates 1-3,1.203 and 1.452 and 1.301
same,GATA6.R.V Norm_20,replicates 1-3,0.945 and 0.991 and 0.928
same,GCLC.R.C Norm_20,replicates 1-3,0.882 and 0.967 and 1.220
same,GCLM.R.V Norm_20,replicates 1-3,0.988 and 1.024 and 0.965
same,GCN5L2.R.V Norm_20,replicates 1-3,0.974 and 0.944
same,GGPS1.M.V Norm_20,replicates 1-3,0.920 and 0.992 and 1.155
same,GRB2.R.V Norm_20,replicates 1-3,0.992 and 0.862 and 0.948
same,GRB7.R.V Norm_20,replicates 1-3,0.909 and 0.898
same,GSK.3B.R.C Norm_20,replicates 1-3,0.896 and 0.924
same,GSK.3a.b.M.V Norm_20,replicates 1-3,0.918 and 0.992
same,GSK.3a.b_pS21_S9.R.V Norm_20,replicates 1-3,1.411 and 1.207
same,Gab2.R.V Norm_20,replicates 1-3,1.447 and 1.019
same,Gli1.R.C Norm_20,replicates 1-3,0.898 and 0.922 and 1.028
same,Gli3.R.C Norm_20,replicates 1-3,1.237 and 1.346 and 1.321
same,Glucocorticoid.Receptor.R.V Norm_20,replicates 1-3,1.227 and 1.295 and 0.987
same,Glutamate.D1.2.R.V Norm_20,replicates 1-3,1.198
same,Glutaminase.R.C Norm_20,replicates 1-3,1.026 and 1.144 and 1.364
same,Granzyme.B.R.V Norm_20,replicates 1-3,1.284 and 1.028
same,Grp75.R.C Norm_20,replicates 1-3,1.594 and 1.052 and 0.939
same,Gys.R.V Norm_20,replicates 1-3,0.807 and 0.941 and 1.104
same,Gys_pS641.R.V Norm_20,replicates 1-3,0.671 and 0.818 and 1.079
same,H2AX_pS139.R.C Norm_20,replicates 1-3,1.188 and 2.081 and 1.030
same,H2AX_pS140.M.C Norm_20,replicates 1-3,1.001 and 1.667 and 1.028
same,HER2.M.V Norm_20,replicates 1-3,0.977 and 0.952 and 1.056
same,HER2_pY1248.R.V Norm_20,replicates 1-3,0.902 and 1.119
same,HER3.R.V Norm_20,replicates 1-3,0.864 and 0.935 and 0.913
same,HER3_pY1289.R.C Norm_20,replicates 1-3,1.059 and 1.124
same,HES1.R.V Norm_20,replicates 1-3,1.224 and 0.849 and 1.063
same,Heregulin.R.V Norm_20,replicates 1-3,1.048 and 1.050
same,eEF2.R.C Norm_20,replicates 1-3,1.328 and 1.602 and 1.986
same,eEF2K.R.V Norm_20,replicates 1-3,1.469 and 1.590 and 1.169
same,eIF4E.R.V Norm_20,replicates 1-3,1.107 and 0.843 and 1.392
